From US20080293749A1, “Pyrrolidine(thi)ones Substituted by Heterocyclic Substituents in The 3-Position” (Gruenenthal GmbH, priority 2005, published 2008)
Converted amounts (≈) assume the structure as drawn.

How the values were obtained:
[1] = system: IL-12 production of LPS-activated monocytes; experiment: Inhibition of IL-12 production of LPS-activated human monocytes (sandwich ELISA of culture supernatants); format: cell-based; conditions: Monocyte; human CD14-positive monocytes, 1 h preincubation with test substance, 10 μg/ml LPS from E. coli, 24 hours
Protocol: (§1) Stimulation of human monocytes with lipopolysaccharide for secretion of IL-10 and IL-12:
(§2) Human monocytes were isolated from peripheral blood mononuclear cells (PBMC), which were obtained from heparinized whole blood by means of a Ficoll density gradient centrifugation. For this, the PBMC were incubated with a monoclonal antibody which is directed against the monocyte-specific surface molecule CD14 and to which superparamagnetic microbeads (Miltenyi Biotech, Bergisch Gladbach) are coupled. For positive selection of the labelled monocytes from the cell mixture of the PBMC, the entire cell suspension was applied to a column with a ferromagnetic carrier matrix and this was placed in a magnetic field. The cells loaded with microbeads were thereby bound to the carrier matrix, and non-labelled cells passed through the column and were discarded. After removing the matrix from the magnetic field, the antibody-laden cells were eluted by rinsing the now demagnetized column with buffer. The purity of this CD14-positive monocyte population obtained in this way is about 95-98%. These monocytes were incubated in a density of 10^6 cells/ml of culture medium (RPMI, supplemented with 10% foetal calf serum) with the test substances, dissolved in DMSO, at 37° C. and 5% CO2 for one hour. 10 μg/ml of LPS from E. coli were then added. After 24 hours, cell-free culture supernatants were taken and tested for the content of IL-10 and IL-12.
(§3) The concentration of IL-12 and IL-10 in the cell culture supernatants was determined by means of sandwich ELISAs using two anti-IL-12 and, respectively, IL-10 monoclonal antibodies (Biosource Europe, Fleurus, Belgium). A reference standard curve with human IL-10 and, respectively, IL-12 was included. The detection limit of the ELISAs was 15 pg/ml.

[2] = system: IL-10 production of LPS-activated monocytes; experiment: Increase in IL-10 production of LPS-activated human monocytes (sandwich ELISA of culture supernatants); format: cell-based; conditions: human CD14-positive monocytes, 1 h preincubation with test substance, 10 μg/ml LPS from E. coli, 24 hours; for EC200: Monocyte
Protocol: as §1, §2, §3

[3] = Pharmacokinetics after intravenous administration to rats (plasma concentration/time curves); format: in vivo; conditions: 10 mg/kg each, both compounds given together, estimated from the FIGURE
Protocol: Volumes of 2 ml/kg were administered intravenously to rats through the tail vein. After defined times, blood samples were taken from the retro-orbital plexus and plasma obtained. Plasma concentrations of both compounds were determined using valid bioanalytical methods.

Row | IC50 [1] | distribution volume [3] | melting point | Compound | EC200 [2] | Increase in IL-10 production EC200 [2]
1 | 0.13 mg/L (≈ 0.526 µM) | 0.26 L/kg | – | O=C1CC(N2C=Nc3cc(F)ccc3C2)C(=O)N1 (stereo not shown) [Example 3, 3-(7-fluoro-4H-quinazolin-3-yl)-pyrrolidine-2,5-dione] | 0.4 µg/mL | –
2 | 7.3 mg/L (≈ 30 µM) | – | 221 to 224 °C | Cc1cccc2c1CN(C1CC(=O)NC1=O)C=N2 (stereo not shown) [Example 8b, 3-(5-methyl-4H-quinazolin-3-yl)-pyrrolidine-2,5-dione] | > 50 µg/mL | –
3 | 0.62 mg/L (≈ 2.35 µM) | – | 194 °C | O=C1CC(N2C=Nc3cc(Cl)ccc3C2)C(=O)N1 (stereo not shown) [Example 8g, 3-(7-chloro-4H-quinazolin-3-yl)-pyrrolidine-2,5-dione] | 1 µg/mL | –
4 | 15 mg/L (≈ 57.9 µM) | – | 174 to 184 °C | COc1ccc2c(c1)N=CN(C1CC(=O)NC1=O)C2 (stereo not shown) [Example 9b, 3-(7-methoxy-4H-quinazolin-3-yl)-pyrrolidine-2,5-dione] | 16 µg/mL | –
5 | 0.303 mg/L (≈ 1.15 µM) | – | 218 °C | O=C1CC(N2C=Nc3cccc(Cl)c3C2)C(=O)N1 (stereo not shown) [Example 10a, 3-(5-chloro-4H-quinazolin-3-yl)-pyrrolidine-2,5-dione] | 16 µg/mL | –
6 | 1.17 mg/L (≈ 4.44 µM) | – | 166 °C | O=C1CC(N2C=Nc3ccc(Cl)cc3C2)C(=O)N1 (stereo not shown) [Example 10c, 3-(6-chloro-4H-quinazolin-3-yl)-pyrrolidine-2,5-dione] | > 50 µg/mL | –
7 | 0.6 mg/L (≈ 2.62 µM) | – | 168 to 174 °C | O=C1CC(N2C=Nc3ccccc3C2)C(=O)N1 (stereo not shown) [Example 11a, 3-(4H-quinazolin-3-yl)-pyrrolidine-2,5-dione] | 5 µg/mL | –
8 | 0.514 mg/L (≈ 2.08 µM) | – | 184 to 191 °C | O=C1CC(N2C=Nc3cccc(F)c3C2)C(=O)N1 (stereo not shown) [Example 11b, 3-(5-fluoro-4H-quinazolin-3-yl)-pyrrolidine-2,5-dione] | 5.6 µg/mL | –
9 | 5.71 mg/L (≈ 20.8 µM) | – | – | O=C1CC(N2C=Nc3cccc([N+](=O)[O-])c3C2)C(=O)N1 (stereo not shown) [Example 14, 3-(5-nitro-4H-quinazolin-3-yl)-pyrrolidine-2,5-dione] | 20 µg/mL | –
10 | 4 mg/L (≈ 16.5 µM) | – | 72 to 75 °C | CC1=Nc2ccccc2CN1C1CC(=O)NC1=O (stereo not shown) [Example 15b, 3-(2-methyl-4H-quinazolin-3-yl)-pyrrolidine-2,5-dione] | > 50 µg/mL | –
11 | 0.419 mg/L (≈ 1.51 µM) | – | 153 to 155 °C | CC1=Nc2cc(Cl)ccc2CN1C1CC(=O)NC1=O (stereo not shown) [Example 15bb, 3-(7-chloro-2-methyl-4H-quinazolin-3-yl)-pyrrolidine-2,5-dione] | 5.6 µg/mL | –
12 | 6 mg/L (≈ 23 µM) | – | – | CC1=Nc2cc(F)ccc2CN1C1CC(=O)NC1=O (stereo not shown) [Example 15cc, 3-(7-fluoro-2-methyl-4H-quinazolin-3-yl)-pyrrolidine-2,5-dione] | 20 µg/mL | –
13 | 0.52 mg/L (≈ 1.86 µM) | – | 176 to 178 °C | CC1=Nc2cc(F)cc(F)c2CN1C1CC(=O)NC1=O (stereo not shown) [Example 15e, 3-(5,7-difluoro-2-methyl-4H-quinazolin-3-yl)-pyrrolidine-2,5-dione] | 3 µg/mL | –
14 | 4 mg/L (≈ 12.4 µM) | – | – | CC1=Nc2cccc(Br)c2CN1C1CC(=O)NC1=O (stereo not shown) [Example 15h, 3-(5-bromo-2-methyl-4H-quinazolin-3-yl)-pyrrolidine-2,5-dione] | > 50 µg/mL | –
15 | 0.884 mg/L (≈ 3.18 µM) | – | 163 to 170 °C | CC1=Nc2cccc(Cl)c2CN1C1CC(=O)NC1=O (stereo not shown) [Example 15i, 3-(5-chloro-2-methyl-4H-quinazolin-3-yl)-pyrrolidine-2,5-dione] | 15 µg/mL | –
16 | 0.521 mg/L (≈ 1.76 µM) | – | 179 to 181 °C | CC1=Nc2cc(F)cc(Cl)c2CN1C1CC(=O)NC1=O (stereo not shown) [Example 15j, 3-(5-chloro-7-fluoro-2-methyl-4H-quinazolin-3-yl)-pyrrolidine-2,5-dione] | 5 µg/mL | –
17 | 2 mg/L (≈ 7.66 µM) | – | 185 °C | CC1=Nc2cccc(F)c2CN1C1CC(=O)NC1=O (stereo not shown) [Example 15l, 3-(5-fluoro-2-methyl-4H-quinazolin-3-yl)-pyrrolidine-2,5-dione] | 5.6 µg/mL | –
18 | 1.8 mg/L (≈ 6.45 µM) | – | 183 to 185 °C | CC1=Nc2cc(F)c(F)cc2CN1C1CC(=O)NC1=O (stereo not shown) [Example 15u, 3-(6,7-difluoro-2-methyl-4H-quinazolin-3-yl)-pyrrolidine-2,5-dione] | > 50 µg/mL | –
19 | 0.07 mg/L (≈ 0.271 µM) | – | – | O=C1CCC(N2C(=O)c3ccccc3C2=O)C(=O)N1 (stereo not shown) [Thalidomide, thalidomide, reference compound] | 20 µg/mL | –
20 | > 50 mg/L | – | – | O=C1CC(N2C(=O)c3ccccc3C2=O)C(=O)N1 (stereo not shown) [XXVIII = C1, 2-(2,5-dioxo-pyrrolidin-3-yl)-isoindole-1,3-dione, reference compound] | – | no increase
